Results as given in US20030008335A1, “Biosensor for drug candidates” (priority 2001, published 2003).
Like-named read-outs stand apart in the source and are kept apart here.

Columns and labels:
[1] = test system: bovine aortic endothelial cells (ECs); conditions: 3 ng/ml, over 3 days following administration; cited from earlier work
[2] = test system: bovine aortic endothelial cells (ECs); assay: Fluorescence light microscopy of actin-stained ECs in multichamber LabTek slides (QCM simulation); format: cell-based; conditions: for EC shape and morphology (actin stain): 4 hr treatment
Description: To acquire detailed information about the change in cell shape and attachment while ECs were exposed to varying nocodazole concentrations, we performed a simulation experiment. 76,400 ECs were plated into multichamber LabTek slides and were allowed to attach for 24 hrs in normal growth media. This number of cells simulates the cell surface density in the QCM device. 50 μL of media was then removed and replaced with 50 μL of media with or without concentrated nocodazole. In duplicate, cells either received no nocodazole (control) or final concentrations of 0.33, 1, 2, 6 or 15 μM nocodazole. After four hours, the cells were fixed and stained to reveal the actin microfilament arrangement within the cells, as described below. These studies were performed to detect the shape and attachment changes in ECs that would roughly correspond to a time when the QCM detected maximal shifts in f and R values. […] For actin localization in the multichamber wells or in the QCM device, media was aspirated and replaced with 3.5% formaldehyde. The cells were fixed for 15 mins at room temperature, washed with PBS and then incubated with rhodamine-labeled phalloidin (0.165 μM in PBS) for 30 mins at room temperature. The cells were then washed with PBS and coverslipped with Cytoseal mounting medium (VWR Scientific). The cells were examined using an Olympus BH2 CTD microscope, and the images were digitized using a CCD camera and imported into Photoshop 5.0 of Adobe® and using a Gateways® P11-390 computer.

[3] = test system: bovine aortic endothelial cells (ECs); assay: EC QCM biosensor: Δf and ΔR shifts of attached endothelial cells after drug addition; format: cell-based; conditions: for EC50: Bos taurus, Endothelial cell
From the text: The details of how these measurements were made have been presented previously. Basically, an AT cut quartz crystal of resonant frequency 8.85 MHz with gold electrode (5 mm diameter)was used in a cylindrical Teflon cell (Seiko EG&G). The crystal was sandwiched between two silicone O-rings to allow only one side of the electrode to be exposed to the media and serum containing solution (FIG. 1B). The QCM device was placed within a large petri dish, filled with distilled water, at a level well […] the water surface. This water reservoir allowed humidity to be maintained, preventing evaporation from the QCM cell. The QCM was covered with a petri dish cover plate following placement inside a 37° C. temperature regulated cell incubator. A Model QCA 917 Quartz Crystal Analyzer System (Seiko EG&G), comprised of a Main Unit and Oscillator, was used for the simultaneous measurement of the resonant frequency (f) and resonance admittance (A). Before assembly in the well holder, the gold QCM surface was treated chemically to render it hydrophilic. A drop of 1:3 H2O2 (30%): H2SO4 at 80° C. was placed upon and covered the gold surface for 5 minutes, followed by rinsing with distilled water and drying under N2. This procedure was repeated three times. After sterilization and washing with water and PBS, 52 μl of media and 10% Calf Serum (CS) was added onto the QCM electrode and the entire holder was put into a humidified CO2 incubator controlled at 10% CO2. The f and admittance (A) values were automatically monitored at 1 minute intervals using a PC and WinWedge 32, version 3.0 Software (TAL Technologies®) and the stable values at 2 hour were taken as reference values before the addition of cells. After 2 hours, 250 μl media +10% CS containing a specific number of cells was added evenly to the medium surface. Then f and A values were automatically monitored during the process of EC sedimentation to the crystal surface, and during their impact and spreading over a 20 hr period to achieve steady state attachment. In the data reduction phase, values of A, in μS were converted into motional resistance, R, in units of Ω, using the relationship R=10^6/A. Nocodazole achieved its final concentration by being added in a pre-warned 50 μl volume of media and serum, following removal of 50 μl from the top of the EC QCM biosensor well holder. Following the conclusion of each experiment, trypsinable ECs adhering to the gold QCM surface were determined as described below. Bovine aortic endothelial cells (BAEs) were obtained from Clonetics, Inc., and were maintained as stock cultures in DMEM-10% CS, as previously described. BAEs were not used beyond passage 22. For experimental treatments, ECs were trypsinized, washed with PBS, and precise counts of the number of cells were made using an electronic cell counter made by Coulter, Inc., following resuspension in full media (250 μl). At the end of a QCM experiment, cells firmly attached were determined via trypsinization assay and an electronic counter. This protocol involved the following steps. Media was collected from the QCM (M). The QCM was gently washed with 100 μl PBS (W). After 125 μl trypsin (0.05% w/v trypsin, 0.53 mM EDTA, in Hank's Buffered salt solution) was added and incubated for 6 min. at 37° C., this fraction was collected (T1). Following a second trypsinization wash, identical to the first, this fraction was collected (T2). Aliquots from all of the four steps (M, W, T1, T2) were electronically counted using Coulter counting. After trypsinization, the QCM electrode was washed successively with PBS, water, ethanol, then detached from the well holder. It was then cleaned sequentially with a number of reagents to remove all residual ECM and cell debris, as we have previously described. Cleaned in this way, the QCM was used repeatedly with good reproducibility of its initial f and R values, due to complete protein removal from the QCM surface.

[4] = test system: bovine aortic endothelial cells (ECs); assay: Fluorescence light microscopy of actin-stained ECs on the gold QCM crystal surface; format: cell-based; conditions: 15 μM (FIG. 8B), four hours treatment
Description: For actin localization in the multichamber wells or in the QCM device, media was aspirated and replaced with 3.5% formaldehyde. The cells were fixed for 15 mins at room temperature, washed with PBS and then incubated with rhodamine-labeled phalloidin (0.165 μM in PBS) for 30 mins at room temperature. The cells were then washed with PBS and coverslipped with Cytoseal mounting medium (VWR Scientific). The cells were examined using an Olympus BH2 CTD microscope, and the images were digitized using a CCD camera and imported into Photoshop 5.0 of Adobe® and using a Gateways® P11-390 computer. Actin localization within cells grown and or treated with nocodazole in the QCM. We wished to examine the ECs directly attached to the QCM surface with and without nocodazole treatment. Since the […] needed to be chemically fixed on the surface, we needed to sacrifice crystals for this purpose. Two different crystals were used. The first crystal was used to visualize ECs growing on the gold QCM surface at the steady state condition. At the conclusion of the QCM measurement, cells on the crystals were stained to localize actin microfilaments. In the first experiment, ECs were added to the crystal and were allowed to attach for 24 hrs to achieve their normal characteristic Δf and ΔR shifts. […]

[5] = fluorescence light microscope observations
[6] = 15 μM, ECs beginning to detach from crystal surface

| Molecule | growth stimulation of ECs on the QCM biosensor [1] | EC shape and morphology (actin stain) ([2]; 0.33 μM) | EC shape and morphology (actin stain) ([2]; 1 and 2 μM) | EC shape and morphology (actin stain) ([2]; 6 and 15 μM) | concentration at which changes in EC intercellular contacts and progressive cell rounding begin [2, 5] | concentration by which changes in EC intercellular contacts and cell rounding saturate [2, 5] | initial maximum increase in ΔR after drug addition ([3]; 2.0 μM final concentration, 20,000 ECs added, steady state biosensor) | Δf drop after drug addition ([3]; 2.0 μM final concentration, over the next 4 hours, 20,000 ECs added, steady state biosensor) | Δ(ΔR) value at 15 μM relative to that measured at 6 μM [3, 6] | Δ(Δf) value at 15 μM relative to that measured at 6 μM [3, 6] | EC50 ([3]; as printed in the conclusion, read-out: PC50 (midpoint value of dose effect curve)) | EC50 ([3]; dose curves of Δ(Δf) and Δ(ΔR) vs log concentration, 0.11-6 μM, read-out: PC50 (effective change in cellular attachment in 50% of the ECs, transition midpoint of dose curve)) | EC shape and morphology on QCM crystal (actin stain) [4] |
| --- | --- | --- | --- | --- | --- | --- | --- | --- | --- | --- | --- | --- | --- |
| Fibroblast Growth Factor | stimulated the ECs to divide |  |  |  |  |  |  |  |  |  |  |  |  |
| COC(=O)Nc1nc2ccc(C(=O)c3cccs3)cc2[nH]1 [nocodazole] |  | smaller than control cells | the monolayer became disrupted | significantly reduced cellular area | around 330 nM | ≤ 6 µM | 14 Ω | 360 Hz | 50% | 50% | 900 nM | ~900 nM | lost cell-cell contact |
